Source: ChEMBL document CHEMBL1121775, “Synthesis and antimalarial effects of N2-aryl-N4-[(dialkylamino)alkyl]- and N4-aryl-N2-[(dialkylamino)alkyl]-2,4-quinazolinediamines” (J Med Chem, 1981)
“And” between values parts separate entries of the source, which are not always exact repeats. Equal entries are not always repeated.

Experiments:
Format in all cases: functional
Plasmodium berghei [1] = assay: (§1) Antimalarial effect against trophozoite-induced Plasmodium berghei in mice (Mus musculus) at 640 mg/kg subcutaneous dose
Plasmodium berghei [2] = assay: Antimalarial effect against trophozoite-induced Plasmodium berghei in mice (Mus musculus) at 80 mg/kg subcutaneous dose
Plasmodium berghei [3] = assay: Antimalarial effect against trophozoite-induced Plasmodium berghei in mice (Mus musculus) at 320 mg/kg subcutaneous dose
Plasmodium berghei [4] = assay: Antimalarial effect against trophozoite-induced Plasmodium berghei in mice (Mus musculus) at 160 mg/kg subcutaneous dose
Plasmodium berghei [5] = assay: Antimalarial effect against trophozoite-induced Plasmodium berghei in mice (Mus musculus) after 40 mg/kg subcutaneous dose
Plasmodium berghei [6] = assay: Antimalarial effect against trophozoite-induced Plasmodium berghei in mice (Mus musculus) after 20 mg/kg subcutaneous dose
Plasmodium berghei [7] = assay: Antimalarial activity against trophozoite-induced Plasmodium berghei in mice (Mus musculus)
Plasmodium berghei [8] = assay: as §1; remark: listed apart in the source
Mus musculus [9] = assay: Number of mice cured at a dose of 640 mg/kg sc; details: route subcutaneous
Mus musculus [10] = assay: Number of mice cured at a subcutaneous dose of 320 mg/kg.
Plasmodium berghei [11] = assay: Antimalarial activity against trophozoite-induced Plasmodium berghei in mice (Mus musculus) at 160 mg/kg subcutaneous dose
Mus musculus [12] = assay: Number of mice cured at a subcutaneous dose of 160 mg/kg.

| SMILES | MST (Plasmodium berghei [2]) [days] | MST (Plasmodium berghei [3]) [days] | MST (Plasmodium berghei [4]; 160 mg/kg) | MST (Plasmodium berghei [5]) [days] | MST (Plasmodium berghei [1]) [days] | MST (Plasmodium berghei [6]) [days] | MST (Plasmodium berghei [4]) [days] | also measured |
| --- | --- | --- | --- | --- | --- | --- | --- | --- |
| CCN1CCCC(Nc2nc(Nc3ccc(C(F)(F)F)cc3)c3ccccc3n2)C1 (centres undefined) | -0.1 | 0.9 | 0.2 days and 0.3 days | – | – | – | – | MST (Plasmodium berghei [1]; 640 mg/kg): 3.4 days and 3.1 days |
| CN1CCCC1CCNc1nc(Nc2ccc(C(F)(F)F)cc2)c2ccccc2n1 (centres undefined) | 0.5 | – | 1.5 days and 1.7 days | 0.3 | 7.7 | 0.3 | – | MST (Plasmodium berghei [3]; 320 mg/kg): 4.1 days and 4.3 days |
| CCN(CC)C1CCC(Nc2nc(Nc3ccc(SC)cc3)c3ccccc3n2)CC1 (centres undefined) | – | 11.7 | – | 0.7 | – | – | 5.7 | MST (Plasmodium berghei [2]; 80 mg/kg): 1.1 days and 1.3 days; MST (Plasmodium berghei [6]; 20 mg/kg): 0.5 days and 0.7 days |
| CCN(CC)CCCC(C)Nc1nc(Nc2cc(OC)c(OC)c(OC)c2)c2ccccc2n1 (centres undefined) | -0.3 | 0.5 | 0.3 days and 0.6 days | – | – | 0.3 | – | MST (Plasmodium berghei [1]; 640 mg/kg): 3.5 days and 5 days |
| CCN1CCCC(Nc2nc(Nc3ccc(Cl)c(Cl)c3)nc3c(Cl)cc(Cl)cc23)C1 (centres undefined) | – | – | – | 0.3 | – | 0.3 | 0.5 | – |
| CCN(CC)CCCC(C)Nc1nc(Nc2cc(Cl)cc(Cl)c2)c2ccccc2n1 (centres undefined) | -0.1 | 3.1 | 1.1 days and 1.2 days | – | – | 0.1 | – | MST (Plasmodium berghei [1]; 640 mg/kg): 4.9 days and 4.4 days |
| Clc1cc(Cl)cc(Nc2nc(NCCCN3CCCC3)nc3ccccc23)c1 | – | – | – | 0.4 | 1.2 | – | 0.8 | – |
| CCN1CCCC(Nc2nc(Nc3ccc(Cl)c(Cl)c3)nc3ccc([N+](=O)[O-])cc23)C1 (centres undefined) | – | – | – | – | – | – | – | SD90 (Plasmodium berghei [7]): 34 mg/kg/day |
| CCN(CC)CCCC(C)Nc1nc(Nc2ccc(C(F)(F)F)cc2)c2ccccc2n1 (centres undefined) | – | – | – | -0.6 | 1.6 | – | 0 | – |
| CCN(CC)CCCNc1nc(Nc2ccc(C(F)(F)F)cc2)c2ccccc2n1 | 0.8 | 9.2 | 0.6 days and 0.3 days | – | – | 0 | – | MST (Plasmodium berghei [1]; 640 mg/kg): 10.1 days and 7.5 days |
| Clc1ccc(Nc2nc(NCCCN3CCCCC3)nc3ccccc23)cc1Cl | -0.4 | 1.6 | – | – | – | -0.2 | – | MST (Plasmodium berghei [1]; 640 mg/kg): 3 days and 4.1 days |
| CCN(CC)CCCNc1nc(Nc2ccc(Cl)c(Cl)c2)c2ccccc2n1 | 2.8 | 8.4 | 4.6 days and 5.2 days | – | – | 0 | – | MST (Plasmodium berghei [8]; 640 mg/kg): 9.8 days and 10.5 days; No. of survivals (Mus musculus [9]): 1 |
| CCN(CC)CCNc1nc(Nc2ccc(C(F)(F)F)cc2)c2ccccc2n1 | -0.2 | 2.8 | – | – | – | 0.2 | – | MST (Plasmodium berghei [1]; 640 mg/kg): 5.3 days and 5.5 days |
| CCN(CC)C1CCC(Nc2nc(Nc3ccc(Cl)c(Cl)c3)c3ccccc3n2)CC1 (centres undefined) | – | – | – | 0.5 | – | 0.3 | – | No. of survivals (Mus musculus [10]): 3; MST (Plasmodium berghei [11]; 160 mg/kg): 17.2 days and 15.6 days; No. of survivals (Mus musculus [9]): 5; MST (Plasmodium berghei [2]; 80 mg/kg): 2.9 days and 3.1 days; MST (Plasmodium berghei [3]; 320 mg/kg): 14.4 days and 14.9 days; No. of survivals (Mus musculus [12]; 160 mg/kg): 1 and 2 |
| CCN(CC)CCNc1nc(Nc2cc(Cl)c(Cl)cc2Cl)nc2ccccc12 | – | – | – | 0.4 | 1.2 | – | 0.4 | – |
| CCN(CC)C1CCC(Nc2nc(Nc3cc(Cl)cc(Cl)c3)c3ccccc3n2)CC1 (centres undefined) | 0.5 | – | 0.7 days and 0.5 days | – | – | 0.3 | – | MST (Plasmodium berghei [5]; 40 mg/kg): 0.5 days and 0.3 days; No. of survivals (Mus musculus [9]): 5; MST (Plasmodium berghei [3]; 320 mg/kg): 7.9 day and 8.1 MST |

| SMILES | MST (Plasmodium berghei [2]) [days] | MST (Plasmodium berghei [3]) [days] | MST (Plasmodium berghei [4]; 160 mg/kg) | MST (Plasmodium berghei [5]) [days] | MST (Plasmodium berghei [1]) [days] | MST (Plasmodium berghei [6]) [days] | MST (Plasmodium berghei [4]) [days] | also measured |
| --- | --- | --- | --- | --- | --- | --- | --- | --- |
| CCN1CCCC(Nc2nc(Nc3ccc(Cl)c(Cl)c3)c3ccccc3n2)C1 (centres undefined) | 0.9 | 2.9 | 0.9 days and 2.2 days | – | – | 0.9 | – | MST (Plasmodium berghei [1]; 640 mg/kg): 9.5 days and 10.6 days |
| CCN(CC)C1CCC(Nc2nc(Nc3cccc(Br)c3)c3ccccc3n2)CC1 (centres undefined) | – | – | 10.3 days and 10.1 days | – | – | – | – | MST (Plasmodium berghei [5]; 40 mg/kg): 0.3 days and 0.5 days; No. of survivals (Mus musculus [9]; 640 mg/kg): 3 and 2; MST (Plasmodium berghei [2]; 80 mg/kg): 2.5 days and 2.7 days; MST (Plasmodium berghei [3]; 320 mg/kg): 12.9 days and 12.7 days; MST (Plasmodium berghei [6]; 20 mg/kg): 0.3 days and 0.5 days |
| CCN(CC)CCCNc1nc(Nc2cc(Cl)cc(Cl)c2)c2ccccc2n1 | 1.4 | 5 | 3 days and 2.7 days | – | – | 0.2 | – | MST (Plasmodium berghei [8]; 640 mg/kg): 14.5 days and 15.7 days; No. of survivals (Mus musculus [9]): 2 |
| CCN(CC)CCCC(C)Nc1nc(Nc2ccc(Cl)c(Cl)c2)c2ccccc2n1 (centres undefined) | 0.3 | 1.3 | – | – | – | 0.1 | – | MST (Plasmodium berghei [5]; 40 mg/kg): 0.3 days and 0.4 days; MST (Plasmodium berghei [1]; 640 mg/kg): 4.7 days and 5.8 days |
| Clc1cc(Cl)cc(Nc2nc(NCCCN3CCCCC3)nc3ccccc23)c1 | – | – | – | 0.2 | 1.6 | – | 0.2 | – |
| CN(C)C1CCC(Nc2nc(Nc3cccc(Br)c3)c3ccccc3n2)CC1 (centres undefined) | – | – | – | -0.1 | 0.7 | – | 0.7 | – |
| CCN(CC)CCCC(C)Nc1nc(Nc2ccc(O)c(CN(CC)CC)c2)c2ccccc2n1 (centres undefined) | 1.4 | 7.4 | 3.8 days and 1.6 days | – | 5.6 | 0 | – | MST (Plasmodium berghei [8]): 3.1 days; MST (Plasmodium berghei [5]; 40 mg/kg): 0.6 days and 0.2 days; No. of survivals (Mus musculus [9]): 3 |
| CN(C)C1CCC(Nc2nc(Nc3cc(Cl)cc(Cl)c3)c3ccccc3n2)CC1 (centres undefined) | 1.2 | – | – | 0 | – | -0.2 | 2.6 | No. of survivals (Mus musculus [9]): 5 |
| FC(F)(F)c1ccc(Nc2nc(NCCCN3CCCCC3)nc3ccccc23)cc1 | – | – | – | -0.2 | 2.4 | – | -0.2 | – |
| CN(C)C1CCC(Nc2nc(Nc3ccc(C(F)(F)F)cc3)c3ccccc3n2)CC1 (centres undefined) | – | – | – | 1.1 | 0.7 | – | 0.7 | – |
| CCN(CC)C1CCC(Nc2nc(Nc3ccc(C(F)(F)F)cc3)c3ccccc3n2)CC1 (centres undefined) | – | – | 9.7 days and 9.5 days | 0.5 | – | – | – | No. of survivals (Mus musculus [10]): 5; No. of survivals (Mus musculus [9]; 640 mg/kg): 3 and 2; MST (Plasmodium berghei [2]; 80 mg/kg): 0.7 days and 0.5 days; MST (Plasmodium berghei [6]; 20 mg/kg): 0.5 days and 0.3 days |
| CN(C)c1ccc(Nc2nc(NC3CCC(N(C)C)CC3)nc3ccccc23)cc1 (centres undefined) | – | – | – | -0.2 | 1.1 | – | 0.6 | – |
| CCN1CCC(CNc2nc(Nc3cc(Cl)cc(Cl)c3)c3ccccc3n2)CC1 | – | – | 5.7 days and 5.9 days | 0.5 | – | – | – | No. of survivals (Mus musculus [10]; 320 mg/kg): 3 and 2; No. of survivals (Mus musculus [9]; 640 mg/kg): 3 and 2; MST (Plasmodium berghei [2]; 80 mg/kg): 2.5 days and 2.7 days; MST (Plasmodium berghei [6]; 20 mg/kg): 0.5 days and 0.3 days |
| CCN1CCC(CNc2nc(Nc3ccc(Cl)c(Cl)c3)c3ccccc3n2)CC1 | – | – | – | 2.1 | – | – | – | No. of survivals (Mus musculus [10]): 5; MST (Plasmodium berghei [11]): 6.94 days; No. of survivals (Mus musculus [9]): 5; MST (Plasmodium berghei [2]; 80 mg/kg): 6.7 days and 6.9 days; No. of survivals (Mus musculus [12]): 1; MST (Plasmodium berghei [6]; 20 mg/kg): 0.5 days and 0.7 days |
| OC1CCCN(CCCNc2nc(Nc3cccc4nsnc34)nc3ccccc23)C1 (centres undefined) | – | – | – | 0 | 0 | – | 0 | – |
| CCN1CCCC(Nc2nc(Nc3cc(Cl)cc(Cl)c3)c3ccccc3n2)C1 (centres undefined) | 0.2 | 2.4 | 0.4 days and 0.3 days | – | – | 0.4 | – | MST (Plasmodium berghei [5]; 40 mg/kg): 0.2 days and 0.1 days; MST (Plasmodium berghei [1]; 640 mg/kg): 4.4 days and 6.3 days |
